Results reported in patent publication US9474790B2, “Stable, protracted GLP-1/glucagon receptor co-agonists for medical use” (Novo Nordisk A/S, priority 2013, dated 2016).
Numbered stars: 1 amine (or outer) side, 2 acyl side, 3 side chain; on linkers, the order of the positions; unused ones are H or OH. Bridge positions count the residues as written; N and C are the ends. Square brackets hold non-standard residues; d marks the D form. Side chains are listed from the residue outwards. Peptide text beside a SMILES is read from it. I, II: the chains in the order shown. * marks the point of attachment. C18 diacid = O=C(O)CCCCCCCCCCCCCCCCC(=O)*; γGlu = O=C(O)[C@H](CCC(=O)[*:2])N[*:1]; Ac4c = NC1(C(=O)O)CCC1; AEEA = NCCOCCOCC(=O)O

Each compound was assayed against T1, human glucagon receptor (Homo sapiens, UniProt P47871) (assay: Glucagon receptor binding, 125I-glucagon displacement SPA on isolated membranes). Conditions: displacement of 125I-glucagon from membranes; read-out: IC50 GlucR.
T1 construct: expressed in transfected cells; host or cells: BHK cells (parent BHK570, CRE luciferase clone BHK/KZ10-20-48), clone pLJ6'-4-25
Protocol: The purpose of this assay was to test the in vitro receptor binding activity (i.e. affinity) of the glucagon derivatives of the invention. The receptor binding activity is a measure of affinity of a derivative for the human glucagon receptor.
The receptor binding of each compound to the human glucagon receptor was measured in a displacement binding assay. In this type of assay a labelled ligand (in this case 125I-glucagon) is bound to the receptor. Each derivative was added in a series of concentrations to isolated membranes containing the human glucagon receptor and displacement of the labelled ligand is monitored. The receptor binding was reported as the concentration at which half of the labelled ligand is displaced from the receptor, the IC50 value.
In order to test the binding of the derivatives to albumin, the assay may be performed in a very low concentration of serum albumin (max. 0.001% final assay concentration) as well as in the presence of a higher concentration of serum albumin (0.2% final assay concentration). An increase of the IC50 value, in the presence of serum albumin indicates an affinity to serum albumin and represents a method to predict a protracted pharmacokinetic profile of the test substance in animal models.
The following chemicals were used in the assay: DMEM w Glutamax (Gibco 61965-026), Pen/strep (Invitrogen 15140-122), G418 (Invitrogen 10131-027), Versene (Gibco 15040), 1 M Hepes (Gibco 15630), PBS (Invitrogen 14190-094), fetal calf serum (Invitrogen 16140-071), MgCl2 (Merck 1.05832.1000), EDTA (Invitrogen 15575-038), CaCl2 (Sigma, C5080), Tween 20 (Amresco 0850C335), ovalbumin (Sigma A5503), SPA particles (wheat germ agglutinin (WGA) SPA beads, Perkin Elmer RPNQ0001), [125I]-glucagon (produced in-house), OptiPlate™-96 (Packard 6005290).
HME buffer consisted of 25 mM HEPES, 2 mM MgCl2 and 1 mM EDTA, and pH was adjusted to 7.4. Assay buffer consisted of 50 mM HEPES supplemented with 5 mM MgCl2, 1 mM CaCl2, 0.02% Tween 20 and 0.1% Ovalbumin, and pH was adjusted to 7.4.
The cells used in this assay (clone BHK hGCGR A3*25) were BHK cells stable transfected with an expression plasmid containing the cDNA encoding the human glucagon receptor.
The cells were grown at 5% CO2 in DMEM, 10% fetal calf serum, 1% Pen/Strep (Penicillin/Streptomycin) and 1.0 mg/ml of the selection marker G418. To make a membrane preparation the cells were grown to approximately 80% confluence. The cells were washed twice in phosphate-buffered saline and harvested. The cells were pelleted using a brief centrifugation and the cell pellet was kept on ice. Lyse the cells by adding approx. 5 ml HME buffer, mix by pipetting and snap freeze in liquid nitrogen. Thaw quickly and add HME buffer to 10 ml. The cell pellet was homogenised with an ULTRA-THURRAX dispersing instrument for 20-30 sec. The homogenate was centrifuged at 20.000×G, 4° C. for 10 min. The pellet was re-suspended (homogenised) in 1-2 ml HME buffer. The protein concentration was determined. The membranes were aliquoted and snap-frozen in liquid nitrogen and stored at minus 80° C.
1. For the receptor binding assay, 50 μl of the assay buffer was added to each well of an assay plate.
2. Test compounds were serially diluted to give the following concentrations: 8×10EE-7 M, 8×10EE-8 M, 8×10EE-9 M, 8×10EE-10 M, 8×10EE-11 M, 8×10EE-12 M and 8×10EE-13 M. Twenty-five μl were added to appropriate wells in the assay plate.
3. Cell membrane aliquots were thawed and diluted to their working concentration. Fifty μl were added to each well in the assay plate.
4. WGA SPA beads were suspended in assay buffer at 20 mg/ml. The suspension was diluted to 10 mg/ml in assay buffer just prior to addition to the assay plate. Fifty μl were added to each well in the assay plate.
5. The incubation was started by adding 25 μl of 480 pM solution of [125I]-glucagon to each well of the assay plate. A 25 μl aliquot was reserved for measuring total counts/well.
6. The assay plate was incubated for 2 h at 25° C.
7. […]

T1 sequence (P47871 26-477): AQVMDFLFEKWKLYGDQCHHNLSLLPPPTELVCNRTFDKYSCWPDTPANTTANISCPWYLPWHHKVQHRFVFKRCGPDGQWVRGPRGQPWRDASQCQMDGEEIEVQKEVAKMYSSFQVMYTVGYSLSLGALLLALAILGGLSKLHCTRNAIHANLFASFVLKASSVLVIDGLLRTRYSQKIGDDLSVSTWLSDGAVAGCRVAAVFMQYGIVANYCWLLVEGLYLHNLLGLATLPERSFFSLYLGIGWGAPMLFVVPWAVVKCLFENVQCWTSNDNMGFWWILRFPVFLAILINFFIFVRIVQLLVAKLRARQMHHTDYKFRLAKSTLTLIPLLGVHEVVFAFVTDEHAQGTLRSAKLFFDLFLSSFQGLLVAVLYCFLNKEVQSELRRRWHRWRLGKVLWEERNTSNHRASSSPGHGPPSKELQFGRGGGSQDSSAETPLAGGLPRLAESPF

SMILES | IC50 [nM]
CC(C)C[C@H](NC(=O)[C@H](Cc1ccc(O)cc1)NC(=O)[C@H](CCCNC(=N)N)NC(=O)[C@H](CO)NC(=O)[C@H](CC(C)C)NC(=O)[C@H](CC(=O)O)NC(=O)[C@H](CO)NC(=O)[C@@H](NC(=O)[C@H](Cc1ccccc1)NC(=O)[C@@H](NC(=O)CNC(=O)[C@H](CCC(N)=O)NC(=O)C1(NC(=O)[C@@H](N)Cc2c[nH]cn2)CCC1)[C@@H](C)O)[C@@H](C)O)C(=O)N[C@@H](CCC(=O)O)C(=O)N[C@@H](CO)C(=O)N[C@@H](CCCNC(=N)N)C(=O)N[C@@H](CCCNC(=N)N)C(=O)N[C@@H](C)C(=O)N[C@@H](CCCNC(=N)N)C(=O)N[C@@H](CCC(=O)O)C(=O)N[C@@H](Cc1ccccc1)C(=O)N[C@H](C(=O)N[C@@H](CCC(N)=O)C(=O)N[C@@H](Cc1c[nH]c2ccccc12)C(=O)N[C@@H](CC(C)C)C(=O)N[C@@H](CC(C)C)C(=O)N[C@@H](CCCCNC(=O)CC[C@H](NC(=O)CC[C@H](NC(=O)COCCOCCNC(=O)COCCOCCNC(=O)CC[C@H](NC(=O)CC[C@H](NC(=O)CCCCCCCCCCCCCCCCC(=O)O)C(=O)O)C(=O)O)C(=O)O)C(=O)O)C(=O)N[C@H](C(N)=O)[C@@H](C)O)C(C)C [Example 59, N^ε28-[(4S)-4-carboxy-4-[[(4S)-4-carboxy-4-[[2-[2-[2-[[2-[2-[2-[[(4S)-4-carboxy-4-[[(4S)-4-carboxy-4-(17-carboxyheptadecanoylamino)butanoyl]amino]butanoyl]amino]ethoxy]ethoxy]acetyl]amino]ethoxy]ethoxy]acetyl]amino]butanoyl]amino]butanoyl]-[Acb2,Leu10,Arg12,Glu15,Arg20,Glu21,Leu27,Lys28]-Glucagon amide] (H-H[Ac4c]QGTFTSDLSRYLESRRAREFVQWLLK([γGlu-γGlu-AEEA-AEEA-γGlu-γGlu-C18 diacid])T-NH2; N-terminus assumed) | 1.4
CC(C)C[C@H](NC(=O)[C@H](CC(=O)O)NC(=O)[C@H](CC(C)C)NC(=O)[C@H](Cc1ccc(O)cc1)NC(=O)[C@H](CCCCN)NC(=O)[C@H](CO)NC(=O)[C@H](CC(C)C)NC(=O)[C@H](CC(=O)O)NC(=O)[C@H](CO)NC(=O)[C@@H](NC(=O)[C@H](Cc1ccccc1)NC(=O)[C@@H](NC(=O)CNC(=O)[C@H](CCC(N)=O)NC(=O)C1(NC(=O)[C@@H](N)Cc2c[nH]cn2)CCC1)[C@@H](C)O)[C@@H](C)O)C(=O)N[C@@H](CCCNC(=N)N)C(=O)N[C@@H](CCCNC(=N)N)C(=O)N[C@@H](C)C(=O)N[C@@H](CCCNC(=N)N)C(=O)N[C@@H](CCC(=O)O)C(=O)N[C@@H](Cc1ccccc1)C(=O)N[C@H](C(=O)N[C@@H](CCC(N)=O)C(=O)N[C@@H](Cc1c[nH]c2ccccc12)C(=O)N[C@@H](CC(C)C)C(=O)N[C@@H](CC(C)C)C(=O)N[C@@H](CCCCNC(=O)CC[C@H](NC(=O)CC[C@H](NC(=O)COCCOCCNC(=O)COCCOCCNC(=O)CC[C@H](NC(=O)CC[C@H](NC(=O)CCCCCCCCCCCCCCCCC(=O)O)C(=O)O)C(=O)O)C(=O)O)C(=O)O)C(=O)N[C@H](C(N)=O)[C@@H](C)O)C(C)C [Example 49, N^ε28-[(4S)-4-carboxy-4-[[(4S)-4-carboxy-4-[[2-[2-[2-[[2-[2-[2-[[(4S)-4-carboxy-4-[[(4S)-4-carboxy-4-(17-carboxyheptadecanoylamino)butanoyl]amino]butanoyl]amino]ethoxy]ethoxy]acetyl]amino]ethoxy]ethoxy]acetyl]amino]butanoyl]amino]butanoyl]-[Acb2,Leu10,Leu16,Arg20,Glu21,Leu27,Lys28]-Glucagon amide] (H-H[Ac4c]QGTFTSDLSKYLDLRRAREFVQWLLK([γGlu-γGlu-AEEA-AEEA-γGlu-γGlu-C18 diacid])T-NH2; N-terminus assumed) | 1.7
CC(C)C[C@H](NC(=O)[C@H](Cc1ccc(O)cc1)NC(=O)[C@H](CCCCN)NC(=O)[C@H](CO)NC(=O)[C@H](CC(C)C)NC(=O)[C@H](CC(=O)O)NC(=O)[C@H](CO)NC(=O)[C@@H](NC(=O)[C@H](Cc1ccccc1)NC(=O)[C@@H](NC(=O)CNC(=O)[C@H](CCC(N)=O)NC(=O)C1(NC(=O)[C@@H](N)Cc2c[nH]cn2)CCC1)[C@@H](C)O)[C@@H](C)O)C(=O)N[C@@H](CCC(=O)O)C(=O)N[C@@H](CCC(=O)O)C(=O)N[C@@H](CCCNC(=N)N)C(=O)N[C@@H](CCCNC(=N)N)C(=O)N[C@@H](C)C(=O)N[C@@H](CCCNC(=N)N)C(=O)N[C@@H](CC(=O)O)C(=O)N[C@@H](Cc1ccccc1)C(=O)N[C@H](C(=O)N[C@@H](CCC(N)=O)C(=O)N[C@@H](Cc1c[nH]c2ccccc12)C(=O)N[C@@H](CC(C)C)C(=O)N[C@@H](CC(C)C)C(=O)N[C@@H](CCCCNC(=O)CNC(=O)[C@H](CO)NC(=O)[C@H](CCC(=O)O)NC(=O)CNC(=O)[C@H](CO)NC(=O)CC[C@H](NC(=O)CC[C@H](NC(=O)CCCCCCCCCCCCCCCCC(=O)O)C(=O)O)C(=O)O)C(=O)N[C@H](C(N)=O)[C@@H](C)O)C(C)C [Example 16, N^ε28-[2-[[(2S)-2-[[(2S)-4-carboxy-2-[[2-[[(2S)-2-[[(4S)-4-carboxy-4-[[(4S)-4-carboxy-4-(17-carboxyheptadecanoylamino)butanoyl]amino]butanoyl]amino]-3-hydroxypropanoyl]amino]acetyl]amino]butanoyl]amino]-3-hydroxypropanoyl]amino]acetyl]-[Acb2,Leu10,Glu15,Glu16,Arg20,Leu27,Lys28]-Glucagon amide] (I: H-H[Ac4c]QGTFTSDLSKYLEERRARDFVQWLLKT-NH2 / II: {C18 diacid-γGlu-γGlu}-SGESG; amide I:28-II:C; N-terminus assumed) | 3.9
CC(C)C[C@H](NC(=O)[C@H](Cc1ccc(O)cc1)NC(=O)[C@H](CCCCN)NC(=O)[C@H](CO)NC(=O)[C@H](CC(C)C)NC(=O)[C@H](CC(=O)O)NC(=O)[C@H](CO)NC(=O)[C@@H](NC(=O)[C@H](Cc1ccccc1)NC(=O)[C@@H](NC(=O)CNC(=O)[C@H](CCC(N)=O)NC(=O)C1(NC(=O)[C@@H](N)Cc2c[nH]cn2)CCC1)[C@@H](C)O)[C@@H](C)O)C(=O)N[C@@H](CCC(=O)O)C(=O)N[C@@H](CO)C(=O)N[C@@H](CCCNC(=N)N)C(=O)N[C@@H](CCCNC(=N)N)C(=O)N[C@@H](C)C(=O)N[C@@H](CCCNC(=N)N)C(=O)N[C@@H](CCC(=O)O)C(=O)N[C@@H](Cc1ccccc1)C(=O)N[C@H](C(=O)N[C@@H](CCC(N)=O)C(=O)N[C@@H](Cc1c[nH]c2ccccc12)C(=O)N[C@@H](CC(C)C)C(=O)N[C@@H](CC(C)C)C(=O)N[C@@H](CCCCNC(=O)CC[C@H](NC(=O)CC[C@H](NC(=O)COCCOCCNC(=O)COCCOCCNC(=O)CC[C@H](NC(=O)CCCCCCCCCCCCCCCCC(=O)O)C(=O)O)C(=O)O)C(=O)O)C(=O)N[C@H](C(N)=O)[C@@H](C)O)C(C)C [Example 44, N^ε28-[(4S)-4-carboxy-4-[[(4S)-4-carboxy-4-[[2-[2-[2-[[2-[2-[2-[[(4S)-4-carboxy-4-(17-carboxyheptadecanoylamino)butanoyl]amino]ethoxy]ethoxy]acetyl]amino]ethoxy]ethoxy]acetyl]amino]butanoyl]amino]butanoyl]-[Acb2,Leu10,Glu15,Arg20,Glu21,Leu27,Lys28]-Glucagon amide] (H-H[Ac4c]QGTFTSDLSKYLESRRAREFVQWLLK([γGlu-γGlu-AEEA-AEEA-γGlu-C18 diacid])T-NH2; N-terminus assumed) | 7.2
